Results as given in patent US20250099548A1, “PHARMACEUTICAL COMPOSITION FOR PREVENTING OR TREATING DEGENERATIVE BRAIN DISEASES, CONTAINING GLUCAGON-LIKE PEPTIDE-1 AND INTERLEUKIN-1 RECEPTOR ANTAGONIST” (GI INNOVATION, INC., priority 2022, published 2025).

How the values were obtained:
Assay type in all cases: in vivo, mouse
Tg-APP/PS1 mice [1] = assay: Passive avoidance test; conditions: Example 1; 72 and 120 hours after the shock; 1.2 mg/kg intraperitoneal, 4 times for 2 weeks
Protocol: The test substance was prepared by diluting GI210B1 obtained in Preparation Example 1 in saline, and it was intraperitoneally administered to 6.5-month-old Tg-APP/PS1 mice at a concentration of 1.2 mg/kg a total of 4 times for 2 weeks (FIG. 10).
In the Tg-APP/PS1 mice intraperitoneally administered with GI210B1 at 6.5 months of age in Example 1.1 above, behavioral characteristics of cognitive function were evaluated at 7.5 to 8.0 months of age. In order to evaluate the behavioral characteristics of cognitive function, a novel object recognition test (NOR test), a passive avoidance test, and a water maze test were performed. At that time, the three experiments for behavioral evaluation were performed according to a method known in the art.
The passive avoidance test is a test to confirm fear/anxiety memory by associating spatial contextual cues and shock in mice for long periods of 24 hours, 72 hours, and 120 hours. The passive avoidance test is a cognitive behavior evaluation experiment conducted to confirm memories associated with spatial and contextual cues, specifically fear and anxiety. […]
Specifically, mice have a tendency to prefer a dark place. […] The mice prepared in Example 1.1 were learned in the same manner as above, and the time for each step was measured.

Tg-APP/PS1 mice [2] = assay: MAP-2 immunofluorescence staining of hippocampal CA1 region; conditions: 4 times for 2 weeks
Text: Long-term memory is regulated at synapses between axons of neurons and dendrites of target neurons, and the microstructure of neurons is greatly influenced by the state of neuron health. Changes in the microstructure of dendrites of neurons are important for maintaining memory. The microstructure of the dendrites of such neurons can be observed as an image by staining with an anti-MAP-2 antibody (GeneTex, CatNo. GTX133109) located in the dendrites.
Therefore, in order to determine the mechanism of action of cognitive function improvement and memory recovery effects of GI210B1, the Tg-APP/PS1 mice administered with GI210B1 (Tg+GI210B1), the wild type mice (WT) as a normal group, and the Tg-APP/PS1 mice (Tg or Tg+Veh) as a control group were sacrificed, and then the brain tissue was extracted, and the microstructural status of the dendrites (dendritic process) of the hippocampus was analyzed.
In the same manner as in Example 1.4.1 above, the mice from each group were sacrificed, and then the brain tissue was extracted, and the microstructural status of the dendrites of the hippocampus was analyzed.

Tg-APP/PS1 mice [3] = assay: Aβ plaque deposition in brain tissue, thioflavin S staining; conditions: 4 times for 2 weeks
Protocol: Accordingly, in order to confirm the effect of treating Alzheimer's disease by intraperitoneal administration of GI210B1, the Tg-APP/PS1 mice administered with GI210B1 (Tg+GI210B1) and the Tg-APP/PS1 mice (Tg+Veh), a control group, were sacrificed, and then the brain tissue was extracted, and Aβ plaques were stained using thioflavin S, and then the degree of Aβ plaque deposition in the parietal cortex, hippocampus, and piriform cortex regions was analyzed.
Specifically, for immunohistochemical analysis using thioflavin S staining, the brain was collected after perfusion for the mouse with 4% paraformaldehyde, and then the brain was further fixed with 4% paraformaldehyde overnight at 4° C. The brain tissue sections were prepared by cutting the fixed brain tissue to a thickness of […] using a vibratome. The prepared brain tissue sections were stained using thioflavin S by a known method. At that time, the stained image was analyzed using MetaMorph Microscopy Automation & Image Analysis software (Molecular device). The amount of plaque was quantified and expressed as the number of plaques per unit area and the sum of the plaque areas.
The Tg-APP/PS1 mice were prepared in the same manner as in Example 1.1 above. The test substance was prepared by diluting GI210B1, GI210B1C1, or GI210B1CN obtained in Preparation Example 1 to 3 in saline. Thereafter, the prepared test substances were each intraperitoneally administered to the 6.5-month-old Tg-APP/PS1 mice at a concentration of 1.2 mg/kg, 0.7778 mg/kg, and 1.1745 mg/kg a total of 4 times for 2 weeks (FIG. 23).
In the same manner as in Example 1.3 above, the mice were sacrificed, and then the brain tissue was extracted, and the degree of Aβ plaque deposition in the parietal cortex, hippocampus, and piriform cortex regions was analyzed using thioflavin S, which stains Aβ plaques.
The Tg-APP/PS1 mice were prepared in the same manner as in Example 1.1 above. The test substance was prepared by diluting GLP-1 (Peptron), GI210B1C1 obtained in Preparation Example 2 and GI212B2 obtained in Preparation Example 4, anakinra (Amgen, Kineret-inj), and the anti-IL-1 antibody (BioXcell, BE0246) in saline to concentrations of 0.0371 mg/kg, 1.1745 mg/kg, 1.8722 mg/kg, 0.2041 mg/kg, and 1.77 mg/kg, respectively. Thereafter, the prepared test substances were intraperitoneally administered to the 6.5-month-old Tg-APP/PS1 mice a total of 4 times for 2 weeks, as shown in Table 6 below (FIG. 30). […]
In the same manner as in Example 1.3 above, the mice from each group were sacrificed, and then the brain tissue was extracted, and the degree of Aβ plaque deposition in the parietal cortex, hippocampus, and piriform cortex regions was analyzed using thioflavin S, which stains Aβ plaques.

Tg-APP/PS1 mice [4] = assay: Ki-67 staining of hippocampal DG region; conditions: Example 1; GI210B1 1.2 mg/kg intraperitoneal, 4 times for 2 weeks
Text: Ki-67 is a protein expressed in the nucleus during cell division.
In order to confirm the effect of GI210B1 on the decreased neurogenesis in the DG region of the hippocampus of Tg mice, the Tg-APP/PS1 mice administered with GI210B1 (Tg+GI210B1), the wild type mice (WT) as a normal group, and the Tg-APP/PS1 mice (Tg) as a control group were sacrificed, and then the brain was extracted, and the DG region of the hippocampus was fluorescently stained with Ki-67.

[5] = Example 2, GI210B1, GI210B1C1, GI210B1CN at 1.2, 0.7778, 1.1745 mg/kg intraperitoneal

GI210B1: fusion protein dimer comprising GLP-1 (SEQ ID NO: 2), IgG4 Fc domain and IL-1Ra; SEQ ID NO: 10
moving to the dark chamber after foot shock (Tg-APP/PS1 mice [1]): had a tendency not to move to the dark chamber
expression level of MAP-2 in the CA1 region of the hippocampus (Tg-APP/PS1 mice [2]; Example 1, GI210B1 1.2 mg/kg intraperitoneal): recovered to the level of the normal group (WT)
expression level of MAP-2 in the CA1 region of the hippocampus (Tg-APP/PS1 mice [2]; [5]): higher than that of the control group (Tg+Veh)
amount of plaque deposited in the brain (number of plaques per unit area and sum of plaque areas) (Tg-APP/PS1 mice [3]; Example 1, parietal cortex, hippocampus, piriform cortex, GI210B1 1.2 mg/kg intraperitoneal): tended to be reduced compared to the control group
amount of plaque deposited in the brain (number of plaques per unit area and sum of plaque areas) (Tg-APP/PS1 mice [3]; [5]): statistically significantly reduced compared to the control group (Tg+Veh)
amount of plaque deposited in the brain (number of plaques per unit area and sum of plaque areas) (Tg-APP/PS1 mice [3]; Example 2, GI210B1, GI210B1C1, GI210B1CN at 1.2, 0.7778, 1.1745 mg/kg intraperitoneal, listed as G2101B1): tended to be reduced
number of Ki-67 positive cells in the DG region of the hippocampus (Tg-APP/PS1 mice [4]): increased compared to the Tg-APP/PS1 mice (Tg), which was a level similar to that of the normal group (WT)
